What is called IC50 is the concentration at which inhibition is half-maximal. In general, GI50 refers to the concentration that inhibits growth by half. Read a high GI50 as lower sensitivity of the cells.

This passage reports IC50 and GI50 results from paper PMC9848300, “Discovery of novel enasidenib analogues targeting inhibition of mutant isocitrate dehydrogenase 2 as antileukaemic agents” (Journal of Enzyme Inhibition and Medicinal Chemistry, 2023).

One experiment has as its system IDH2 R140Q. The note with it: Figure 2; cited from earlier work.
A further experiment deals with A498. In words: NCI 60 antitumor screening (single dose / five doses). It counts as cell-based. To be noted: Homo sapiens, A498.
Another experiment has as its system HCT-116. The experiment is described as above. It counts as cell-based. To be noted: Homo sapiens, HCT-116.
Another experiment relates to IGROV1. Described as above. It counts as cell-based. To be noted: Homo sapiens, IGROV-1.
In the next experiment the test system is SF-295. The experiment is described as above. It counts as cell-based. The note with it: Homo sapiens, SF-295.
The next experiment concerns MDA-MB-468. The experiment is described as above. It counts as cell-based. The note with it: Homo sapiens, MDA-MB-468.
Another experiment concerns MDA-MB-435. The experiment is described as above. The experiment is classed as cell-based. To be noted: Homo sapiens, MDA-MB-435.
In a further experiment the test system is CCRF-CEM. The experiment is described as above. It counts as cell-based. To be noted: Homo sapiens, CCRF-CEM.
The subject of another experiment is T-47D. The experiment is described as above. The experiment is classed as cell-based. The note with it: Homo sapiens, T47D.
Another experiment has as its system K-562. The description is as above. The experiment is classed as cell-based. To be noted: Homo sapiens, K562.
The test system of another experiment is UACC-62. Described as above. It counts as cell-based. To be noted: Homo sapiens, UACC-62.
Another experiment concerns RXF 393. The experiment is described as above. It counts as cell-based. To be noted: Homo sapiens, RXF 393.
For a further experiment, the system named is SR. The description is as above. It counts as cell-based. The note with it: Homo sapiens, SR.
The subject of another experiment is SK-MEL-28. Described as above. The experiment is classed as cell-based. The note with it: Homo sapiens, SK-MEL-28.
For the next experiment, the system named is DU-145. The description is as above. To be noted: Homo sapiens, DU-145. The experiment is classed as cell-based.
A further experiment has as its system EKVX. The description is as above. It counts as cell-based. The note with it: Homo sapiens, EKVX.
Another experiment has as its system SN 12C. The experiment is described as above. The note with it: Homo sapiens, SN12C. The experiment is classed as cell-based.
The target of a further experiment is T1, wild type IDH2 (Homo sapiens, UniProt P48735).
T1 sequence (P48735 40-452): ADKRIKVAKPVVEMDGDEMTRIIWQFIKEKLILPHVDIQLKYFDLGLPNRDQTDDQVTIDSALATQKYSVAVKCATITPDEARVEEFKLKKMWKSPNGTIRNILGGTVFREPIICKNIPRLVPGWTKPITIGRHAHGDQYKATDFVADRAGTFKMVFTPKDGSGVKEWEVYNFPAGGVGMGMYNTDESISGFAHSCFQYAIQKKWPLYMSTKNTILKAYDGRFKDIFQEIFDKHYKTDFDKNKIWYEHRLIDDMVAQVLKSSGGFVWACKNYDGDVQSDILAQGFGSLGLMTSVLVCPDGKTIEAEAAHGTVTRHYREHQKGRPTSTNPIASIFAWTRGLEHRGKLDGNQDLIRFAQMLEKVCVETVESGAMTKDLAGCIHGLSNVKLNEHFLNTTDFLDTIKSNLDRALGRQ
Nature of the experiment: IDH2 enzyme inhibition assay (wild type IDH Assay Kit).

The test system of a further experiment is SF-539. In words: NCI 60 antitumor screening (single dose / five doses). It counts as cell-based. To be noted: Homo sapiens, SF-539.
Another experiment has as its system RPMI-8226. The description is as above. The experiment is classed as cell-based. To be noted: Homo sapiens, RPMI-8226.
The next experiment deals with 786-0. The experiment is described as above. The experiment is classed as cell-based. To be noted: Homo sapiens, 786-0.
The subject of the next experiment is UACC-257. Described as above. The experiment is classed as cell-based. The note with it: Homo sapiens, UACC-257.
The test system of the next experiment is MDA-MB-231/ATCC. The description is as above. It counts as cell-based. The note with it: Homo sapiens, MDA-MB-231.
Another experiment has as its system SNB-75. Described as above. The note with it: Homo sapiens, SNB-75. The experiment is classed as cell-based.
The test system of another experiment is BT-549. The experiment is described as above. The experiment is classed as cell-based. To be noted: Homo sapiens, BT-549.
In another experiment the target is T2, IDH2^R140Q (Homo sapiens, UniProt P48735, R140Q).
T2 sequence (P48735 40-452 R140Q): T1 sequence (P48735 40-452) with R101Q
In words: biochemical.

The subject of a further experiment is SW-620. Nature of the experiment: NCI 60 antitumor screening (single dose / five doses). The experiment is classed as cell-based, human. To be noted: Homo sapiens, SW-620.
The subject of a further experiment is HL-60(TB). Described as above. It counts as cell-based. The note with it: Homo sapiens, HL-60.
For another experiment, the system named is ACHN. The experiment is described as above. It counts as cell-based. The note with it: Homo sapiens, ACHN.
For a further experiment, the system named is NCI/ADR-RES. Described as above. It counts as cell-based. To be noted: Homo sapiens, NCI/ADR-RES.
The test system of another experiment is HOP-92. The experiment is described as above. The experiment is classed as cell-based. To be noted: Homo sapiens, HOP-92.
For the next experiment, the system named is HCT-15. Described as above. It counts as cell-based. The note with it: Homo sapiens, HCT-15.
The subject of a further experiment is MOLT-4. Described as above. The note with it: Homo sapiens, MOLT-4. It counts as cell-based.
The subject of a further experiment is SK-MEL-5. Described as above. It counts as cell-based. To be noted: Homo sapiens, SK-MEL-5.
The subject of another experiment is MALME-3M. Described as above. The experiment is classed as cell-based. To be noted: Homo sapiens, Malme-3M.
For a further experiment, the system named is HT29. The experiment is described as above. It counts as cell-based, human. To be noted: Homo sapiens, HT-29.
For another experiment, the system named is COLO 205. The description is as above. The experiment is classed as cell-based. The note with it: Homo sapiens, COLO 205.
In another experiment the test system is LOX IMVI. The description is as above. It counts as cell-based. The note with it: Homo sapiens, LOX IMVI.
For another experiment, the system named is UO-31. Described as above. It counts as cell-based. To be noted: Homo sapiens, UO-31.
The next experiment deals with IDH1 R132H. The note with it: Figure 2; cited from earlier work.

Molecules are shown by their SMILES. Changes are numbered by the printed parent chain.

Regarding `O=C(Nc1cccc(C(F)(F)F)c1)Nc1cc(S(=O)(=O)NC2CC2)ccc1-c1ccsc1` [AGI-6780], the IC50 in the experiment with IDH2 R140Q was 0.023 µM.

Consider `Cc1ccc(Cl)cc1NC(=O)Nc1cc(NC(=O)c2ccccc2)ccc1N1CCCC1` [CP-17], for which the IC50 in the experiment on IDH2 R140Q is 0.041 µM.

Take `CC(C)(O)CNc1nc(Nc2ccnc(C(F)(F)F)c2)nc(-c2cccc(C(F)(F)F)n2)n1` [Enasidenib]: the concentration for 50% growth inhibition (GI50) in the experiment on A498 was 15.8 µM; in the experiment with HCT-116, 15.8 µM; in the experiment on IGROV1, 31.6 µM; in the experiment on SF-295, 15.8 µM; in the experiment on MDA-MB-468, 19.9 µM; in the experiment with MDA-MB-435, 15.8 µM. Besides, the GI50 in the experiment on CCRF-CEM came out at 19.9 µM; with T-47D it was 15.8 µM; in the experiment with K-562, 31.6 µM; in the experiment on UACC-62, 15.8 µM; in the experiment with RXF 393, 19.9 µM; in the experiment on SR, 19.9 µM. Besides, the GI50 amounted to 15.8 µM in the experiment on SK-MEL-28; 19.9 µM with DU-145; 19.9 µM with EKVX; 19.9 µM in the experiment on SN 12C; 15.8 µM with SF-539; 19.9 µM in the experiment with RPMI-8226. For the same compound, the GI50 in the experiment on 786-0 is 19.9 µM; with UACC-257, 19.9 µM; in the experiment with MDA-MB-231/ATCC, 19.9 µM; with SNB-75, 15.8 µM; with BT-549, 15.8 µM; in the experiment on SW-620, 25.1 µM. For the same compound, the GI50 with HL-60(TB) was 19.9 µM; in the experiment on ACHN it was 25.1 µM; in the experiment with NCI/ADR-RES, 15.8 µM; with HOP-92, 25.1 µM; in the experiment with HCT-15 it was 19.9 µM; with MOLT-4, 12.6 µM. For the same compound, the GI50 in the experiment with SK-MEL-5 came to 12.6 µM; with MALME-3M, 19.9 µM; in the experiment with HT29, 15.8 µM; with COLO 205, 19.9 µM; in the experiment with LOX IMVI it was 15.8 µM; with UO-31, 19.9 µM. The IC50 against wild type IDH2 was 2.33 ± 0.09 µM; at IDH2^R140Q, 0.0755 ± 0.00369 µM; with IDH2 R140Q, 0.1 µM.

In the case of `CC(C)Nc1cc(Nc2cccc(C(F)(F)F)n2)nc(-c2cccc(C(F)(F)F)c2)c1` [III], the IC50 with IDH2 R140Q was 0.074 µM.

As to `CC(C)Nc1cc(Nc2cccc(C(F)(F)F)n2)nc(-c2cccc(Cl)c2)c1` [II], in the experiment with IDH2 R140Q, the IC50 is 0.06 µM.

With `CC(C)Nc1cc(Nc2cc(C(F)(F)F)ccn2)nc(-c2ccccc2)c1` [I], the IC50 in the experiment on IDH2 R140Q was 0.055 µM.

With `CC(C)(C)ONc1nc(Nc2ccnc(C(F)(F)F)c2)nc(-c2cccc(C(F)(F)F)n2)n1` [TQ05310], the IC50 with IDH2 R140Q was 0.137 µM.

With `C[C@@H](Nc1nc(N[C@H](C)C(F)(F)F)nc(-c2cccc(Cl)n2)n1)C(F)(F)F` [Vorasidenib], the IC50 in the experiment on IDH1 R132H is 0.006 µM.
